Data taken from patent US11786503B2, “Pharmaceutical compositions and methods for countering chemotherapy induced cardiotoxicity” (Auransa Inc., priority 2016, dated 2023).
Where two headings read alike, the source gives them in different places.

Columns and labels:
cardiomyocytes = assay: cytotoxicity of myricetin analogs to cardiomyocytes (Table 1, Toxicity); settings: for Toxicity: * = cytotoxicity at 100 μM; for cytotoxicity, in words: at 100 μM where stated; for cytotoxicity, in words / toxic effects at concentrations less than 100 μM: Table 1
[1] = system: Doxorubicin treated human iPSC-derived cardiomyocytes; assay: iPSC-CM protection by myricetin analogs (Table 1); format: cell-based; settings: for cardioprotection, in words: Table 1
TOPOIIα = biological target: T1, TOPOIIα (Homo sapiens, UniProt P11388); assay: kDNA decatenation assay, TOPOIIα; format: biochemical; settings: for TOPOIIα inhibition, in words: decatenation assay;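 for all read-outs here: kDNA incubated with one unit of TOPOIIα at 37 °C for 30 min, decatenated product resolved on 1% agarose gel, inhibition from relative band intensity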
T1 construct: purchased Inspiralis

TOPOIIβ = biological target: T2, TOPOIIβ (Homo sapiens, UniProt Q02880); assay: kDNA decatenation assay, TOPOIIβ; format: biochemical; settings: for TOPOIIβ inhibition, in words: decatenation assay;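 for all read-outs here: kinetoplast DNA incubated with one unit of TOPOIIβ at 37 °C for 30 min, decatenated product resolved on 1% agarose gel, inhibition scored from relative band intensity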
T2 construct: purchased Inspiralis

[2] = Homo sapiens, iPSC-CM, initial screen at 10 μM or 100 μM, read-out: iPSC-CM protection Max Effect (%), class symbol
[3] = Homo sapiens, iPSC-CM, read-out: iPSC-CM protection EC50
[4] = Homo sapiens, iPSC-CM, read-out: iPSC-CM protection Max Effect (%)
[5] = initial screen at 10 μM or 100 μM
[6] = read-out: iPSC-CM protection EC50

T2 sequence (Q02880 whole entry): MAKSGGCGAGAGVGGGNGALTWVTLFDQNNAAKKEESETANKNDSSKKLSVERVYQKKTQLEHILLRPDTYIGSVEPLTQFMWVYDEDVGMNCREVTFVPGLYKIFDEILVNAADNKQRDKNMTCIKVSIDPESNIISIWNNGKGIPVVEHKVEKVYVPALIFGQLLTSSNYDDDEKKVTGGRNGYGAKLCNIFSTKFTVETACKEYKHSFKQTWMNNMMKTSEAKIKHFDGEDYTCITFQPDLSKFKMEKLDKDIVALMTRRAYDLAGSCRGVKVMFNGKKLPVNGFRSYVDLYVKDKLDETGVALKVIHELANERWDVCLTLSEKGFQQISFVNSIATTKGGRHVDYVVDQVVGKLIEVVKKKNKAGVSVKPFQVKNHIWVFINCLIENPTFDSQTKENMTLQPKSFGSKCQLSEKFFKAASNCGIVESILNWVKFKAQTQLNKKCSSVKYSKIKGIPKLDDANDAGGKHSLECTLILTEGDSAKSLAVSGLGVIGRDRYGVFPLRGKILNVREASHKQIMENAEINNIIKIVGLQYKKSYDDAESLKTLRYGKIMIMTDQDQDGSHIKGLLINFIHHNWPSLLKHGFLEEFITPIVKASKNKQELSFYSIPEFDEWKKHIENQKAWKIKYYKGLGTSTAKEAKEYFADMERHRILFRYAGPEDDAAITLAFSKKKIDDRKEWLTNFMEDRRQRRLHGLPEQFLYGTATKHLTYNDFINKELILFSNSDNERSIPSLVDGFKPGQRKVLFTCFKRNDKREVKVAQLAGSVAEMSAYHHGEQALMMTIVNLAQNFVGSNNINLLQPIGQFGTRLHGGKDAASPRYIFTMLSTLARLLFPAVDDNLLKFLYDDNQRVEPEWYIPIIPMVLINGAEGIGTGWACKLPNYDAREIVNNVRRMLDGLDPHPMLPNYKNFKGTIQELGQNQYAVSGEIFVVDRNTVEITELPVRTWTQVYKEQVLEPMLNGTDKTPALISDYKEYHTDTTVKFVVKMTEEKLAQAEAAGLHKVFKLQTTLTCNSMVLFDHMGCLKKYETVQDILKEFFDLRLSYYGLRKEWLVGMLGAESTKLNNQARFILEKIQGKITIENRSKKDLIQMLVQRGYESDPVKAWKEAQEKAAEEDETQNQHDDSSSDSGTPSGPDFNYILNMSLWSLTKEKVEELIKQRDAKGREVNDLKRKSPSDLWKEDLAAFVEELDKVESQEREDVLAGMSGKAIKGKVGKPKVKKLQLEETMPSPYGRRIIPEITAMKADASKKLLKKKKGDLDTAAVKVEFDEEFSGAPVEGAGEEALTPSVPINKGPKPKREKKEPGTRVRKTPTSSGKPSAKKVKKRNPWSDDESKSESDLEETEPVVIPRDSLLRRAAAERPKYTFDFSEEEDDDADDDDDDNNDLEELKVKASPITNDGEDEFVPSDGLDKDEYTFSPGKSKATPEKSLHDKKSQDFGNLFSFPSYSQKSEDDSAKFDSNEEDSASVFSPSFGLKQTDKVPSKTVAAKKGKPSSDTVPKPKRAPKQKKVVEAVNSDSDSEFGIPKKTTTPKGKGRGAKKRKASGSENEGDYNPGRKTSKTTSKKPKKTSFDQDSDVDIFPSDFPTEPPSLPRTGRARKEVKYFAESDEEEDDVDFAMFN
T1 sequence (P11388 whole entry): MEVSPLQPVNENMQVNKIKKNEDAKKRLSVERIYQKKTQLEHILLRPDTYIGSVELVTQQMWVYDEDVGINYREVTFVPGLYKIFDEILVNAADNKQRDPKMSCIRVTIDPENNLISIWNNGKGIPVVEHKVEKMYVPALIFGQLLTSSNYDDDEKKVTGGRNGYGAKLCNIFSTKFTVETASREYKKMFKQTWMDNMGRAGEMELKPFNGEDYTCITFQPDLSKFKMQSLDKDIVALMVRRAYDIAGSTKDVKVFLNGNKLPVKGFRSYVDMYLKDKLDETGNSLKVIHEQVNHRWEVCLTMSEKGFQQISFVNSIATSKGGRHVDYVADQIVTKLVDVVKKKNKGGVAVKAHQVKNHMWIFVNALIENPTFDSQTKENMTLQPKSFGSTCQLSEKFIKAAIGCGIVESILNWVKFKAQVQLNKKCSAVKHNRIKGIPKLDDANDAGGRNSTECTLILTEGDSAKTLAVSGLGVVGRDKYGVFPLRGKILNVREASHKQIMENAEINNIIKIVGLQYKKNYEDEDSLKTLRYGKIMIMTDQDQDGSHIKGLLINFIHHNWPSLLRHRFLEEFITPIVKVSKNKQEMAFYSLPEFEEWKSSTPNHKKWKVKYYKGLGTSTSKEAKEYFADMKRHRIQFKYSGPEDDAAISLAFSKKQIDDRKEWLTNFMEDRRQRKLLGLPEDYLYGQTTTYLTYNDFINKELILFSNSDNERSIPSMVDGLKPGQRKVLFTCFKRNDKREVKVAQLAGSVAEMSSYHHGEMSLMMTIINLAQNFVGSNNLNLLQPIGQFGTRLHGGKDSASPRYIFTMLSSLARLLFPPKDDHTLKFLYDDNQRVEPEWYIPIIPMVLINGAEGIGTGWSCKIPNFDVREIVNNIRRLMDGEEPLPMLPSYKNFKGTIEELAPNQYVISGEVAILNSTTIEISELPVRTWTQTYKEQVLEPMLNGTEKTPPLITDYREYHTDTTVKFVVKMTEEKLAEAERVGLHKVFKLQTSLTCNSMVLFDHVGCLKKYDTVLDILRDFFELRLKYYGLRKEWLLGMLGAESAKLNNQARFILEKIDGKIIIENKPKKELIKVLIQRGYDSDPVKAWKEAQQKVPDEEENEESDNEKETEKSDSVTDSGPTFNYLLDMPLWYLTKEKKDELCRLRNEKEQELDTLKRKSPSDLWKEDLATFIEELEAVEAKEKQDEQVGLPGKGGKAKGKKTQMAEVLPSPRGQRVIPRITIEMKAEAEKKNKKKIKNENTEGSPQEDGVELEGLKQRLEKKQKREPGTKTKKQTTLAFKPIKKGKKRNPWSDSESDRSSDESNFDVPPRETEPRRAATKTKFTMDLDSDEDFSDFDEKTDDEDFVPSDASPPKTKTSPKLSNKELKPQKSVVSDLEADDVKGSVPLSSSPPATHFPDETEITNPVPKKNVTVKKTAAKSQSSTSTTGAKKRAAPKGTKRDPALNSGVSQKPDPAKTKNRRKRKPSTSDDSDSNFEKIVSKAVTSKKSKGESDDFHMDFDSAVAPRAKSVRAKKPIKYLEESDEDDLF

SMILES | Rescue [1] | TOPIIα Inhibition (TOPOIIα) | TOPOIIα inhibition, in words (TOPOIIα) | TOPIIβ Inhibition (TOPOIIβ) | TOPOIIβ inhibition, in words (TOPOIIβ) | EC50 [1, 3] [µM] | Emax [1, 4] [%] | cardioprotection, in words [1] | further results
O=c1ccoc2ccccc12 [Compound 29, chromone] | − |  |  |  |  |  |  |  | Toxicity (cardiomyocytes): −; Emax [1, 2]: < 30%
O=c1cc(-c2cc(O)c(O)c(O)c2)oc2cc(O)ccc12 [Compound 6, 7,3′4′,5′-tetrahydroxyflavone] |  | − | did not inhibit TOPOII enzymes | − | did not inhibit TOPOII enzymes | 17.1 | 71 | displayed cardioprotection | Toxicity (cardiomyocytes): −
O=c1c(O)c(-c2ccc(O)c(O)c2)oc2cc(O)cc(O)c12 [Compound 4, 3,5,7,3′,4′-pentahydroxyflavone] |  |  | exhibited TOPOII inhibition |  | exhibited TOPOII inhibition | 20.5 | 58 | conferred cardioprotection | cytotoxicity, in words (cardiomyocytes): high level of general cytoxicity
O=c1c(O)c(-c2ccc(O)cc2)oc2cc(O)ccc12 [Compound 10, 3,7,4′-trihydroxyflavone] | + | − |  | − |  | 3.26 | 27 |  | toxic effects at concentrations less than 100 μM (cardiomyocytes): exhibited toxic effects
O=c1cc(-c2cc(O)c(O)c(O)c2)oc2ccccc12 [Compound 8, 3′,4′,5′-trihydroxyflavone] | + | − |  | − |  | 43 | 64 |  | Toxicity (cardiomyocytes): −
O=c1cc(-c2cc(O)c(O)c(O)c2)oc2cc(O)cc(O)c12 [Compound 3, 5,7,3′,4′,5′-pentahydroxyflavone] |  |  | displayed cardioprotection and TOPOII inhibition |  | displayed cardioprotection and TOPOII inhibition | 17.2 | 56 | displayed cardioprotection | toxic effects at concentrations less than 100 μM (cardiomyocytes): some toxic effects; cytotoxicity, in words (cardiomyocytes): low level of cytotoxicity
O=c1ccoc2cc(O)ccc12 [Compound 7-hydroxy-4-chromone, 7-hydroxy-4-chromone] |  |  | Nor did either compound confer TOPOIIβ or a inhibition |  | Nor did either compound confer TOPOIIβ or a inhibition |  |  | no positive effect | cytotoxicity, in words (cardiomyocytes): high level of cytotoxicity
O=c1c(O)c(-c2cc(O)c(O)c(O)c2)oc2cc(O)ccc12 [Compound 2, 3,7,3′,4′,5′-pentahydroxyflavone] |  |  | high level of inhibition |  | high level of inhibition | 12.6 | 64 |  | Toxicity (cardiomyocytes): −; EC50 ([1]; Homo sapiens, Cardiomyocyte, approximate, read-out: EC50 for cardioprotection): 10 to 20 µM
O=c1ccoc2cc(O)ccc12 [Compound 38, 7-hydroxy-4-chromone] | − | − |  | − |  |  |  |  | Emax [1, 2]: < 30%
COc1cc(-c2oc3cc(O)cc(O)c3c(=O)c2O)cc(OC)c1OC [Compound 34, 3′,4′,5′-O-trimethylmyricetin] | − | − |  | − |  |  |  |  | iPSC-CM protection Max Effect (%), class symbol [1, 5]: † (Compounds failed to exhibit >30% protection Max Effect at 10 μM or 100 μM on initial screen.)
COc1cc(-c2oc3cc(O)cc(O)c3c(=O)c2O)cc(O)c1O [3′-O-methylmyricetin] |  |  | failed to inhibit |  | failed to inhibit |  |  | conferred cardioprotection | EC50 ([1]; approximate, read-out: EC50 for cardioprotection): ~59 µM
O=c1cc(-c2ccc(O)c(O)c2)oc2cc(O)ccc12 [Compound 11, 7,3′,4′-trihydroxyflavone] | + | − |  | − |  | 6.25 | 24 |  | 
COc1cc(-c2oc3cc(O)cc(O)c3c(=O)c2O)cc(O)c1O [Compound 31, 3′-O-methylmyricetin] | + | − |  | − |  |  |  |  | iPSC-CM protection Max Effect (%) [1]: 76%; EC50 [1, 6]: 58.7 µM
O=c1c(O)c(-c2ccccc2)oc2cc(O)cc(O)c12 [3,5,7-trihydroxyflavone] |  |  | neither cardioprotection nor TOPOII inhibition |  | neither cardioprotection nor TOPOII inhibition |  |  | neither cardioprotection nor TOPOII inhibition | cytotoxicity, in words (cardiomyocytes): generalized cytotoxicity
COc1cc(-c2oc3cc(O)cc(O)c3c(=O)c2O)cc(OC)c1O [3′,5′-O-dimethylmyricetin] |  |  | neither cardioprotection nor TOPOIIα and TOPOIIβ inhibition |  | neither cardioprotection nor TOPOIIα and TOPOIIβ inhibition |  |  | neither cardioprotection nor TOPOIIα and TOPOIIβ inhibition | 
O=c1ccoc2ccccc12 [chromone] |  |  | Nor did either compound confer TOPOIIβ or a inhibition |  | Nor did either compound confer TOPOIIβ or a inhibition |  |  | no positive effect | 
O=C1c2ccc(O)cc2OC(c2cc(O)c(O)c(O)c2)C1O (stereo in doubt) [Compound 30, dihydrorobinetin] |  | − | no inhibitory activity | − | no inhibitory activity |  |  |  | iPSC-CM protection Max Effect (%) [1]: 53%; EC50 [1, 6]: 14 µM
COc1ccc2c(=O)c(OC)c(-c3cc(OC)c(OC)c(OC)c3)oc2c1 [Compound 37, 3,7,3′,4′,5′-O-pentamethylrobinetin] | − | − |  | − |  |  |  |  | iPSC-CM protection Max Effect (%), class symbol [1, 5]: † (Compounds failed to exhibit >30% protection Max Effect at 10 μM or 100 μM on initial screen.)
